Experimental data reported in ChEMBL document CHEMBL1138225, “Synthesis and structure-activity relationships of 3,8-diazabicyclo[4.2.0]octane ligands, potent nicotinic acetylcholine receptor agonists” (J Med Chem, 2006).
Calls of active or inactive are those of the source. The rule behind the calls is not given here.

Columns and labels:
[1] = target: Neuronal acetylcholine receptor; alpha4/beta2 (Rattus norvegicus, UniProt P09483+P12390); assay: Displacement of [3H]cytisine from alpha-4-beta-2 ACHR in rat brain homogenate; format: tissue-based
[2] = target: T1, Neuronal acetylcholine receptor; alpha3/beta4 (Homo sapiens, UniProt P30926+P32297); assay: Agonist activity at human alpha-3-beta-4 ACHR expressed in HEK293 cells assessed as change in intracellular calcium concentration by FLIPR; format: functional, cell-based
[3] = target: T2, Neuronal acetylcholine receptor; alpha4/beta2 (Homo sapiens, UniProt P17787+P43681); assay: Agonist activity at human alpha4beta2 ACHR expressed in HEK293 cells assessed as change in intracellular calcium concentration by FLIPR; format: functional, cell-based
[4] = target: T1, Neuronal acetylcholine receptor; alpha3/beta4; assay: Maximal agonist activity at human alpha-3-beta-4 ACHR expressed in HEK293 cells assessed as change in intracellular calcium concentration by FLIPR relative to nicotine; format: functional, cell-based
[5] = target: T2, Neuronal acetylcholine receptor; alpha4/beta2; assay: Maximal agonist activity on human alpha-4-beta-2 ACHR expressed in HEK293 cells assessed as change in intracellular calcium concentration by FLIPR relative to nicotine; format: functional, cell-based
Rattus norvegicus [6] = assay: Induction of behavioral side effects in rat formalin model upto 19 umol/kg, […]; format: functional, organism-based
Rattus norvegicus [7] = assay: Activity in rat formalin model measured as reduction in flinches at 19 umol/kg, ip; format: functional
Rattus norvegicus [8] = assay: Activity in rat formalin model measured as reduction in flinches at 6.2 umol/kg, ip; format: functional; parameters: scale not given: the % may be the effect or the level left
Rattus norvegicus [9] = species on record: Rattus norvegicus; assay: Activity in rat formalin model measured as reduction in flinches; format: functional, organism-based
Homo sapiens = species on record: Homo sapiens; assay: Selectivity for human alpha4beta2 ACHR over alpha-3-beta-4 ACHR; format: functional

T2 sequence (P17787 whole entry): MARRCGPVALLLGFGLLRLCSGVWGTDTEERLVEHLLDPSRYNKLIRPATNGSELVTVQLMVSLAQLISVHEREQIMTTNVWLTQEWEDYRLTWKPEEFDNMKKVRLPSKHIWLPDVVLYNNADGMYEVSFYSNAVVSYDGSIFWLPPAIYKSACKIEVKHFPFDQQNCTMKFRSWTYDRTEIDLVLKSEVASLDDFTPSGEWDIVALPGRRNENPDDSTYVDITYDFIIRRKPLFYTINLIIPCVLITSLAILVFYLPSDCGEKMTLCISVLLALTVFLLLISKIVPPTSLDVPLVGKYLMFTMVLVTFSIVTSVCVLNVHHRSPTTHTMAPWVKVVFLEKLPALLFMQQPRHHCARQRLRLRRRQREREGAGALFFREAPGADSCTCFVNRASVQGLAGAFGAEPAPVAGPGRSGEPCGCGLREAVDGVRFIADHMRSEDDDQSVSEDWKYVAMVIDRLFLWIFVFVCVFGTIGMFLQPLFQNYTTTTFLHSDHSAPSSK
T2 sequence (P43681 whole entry): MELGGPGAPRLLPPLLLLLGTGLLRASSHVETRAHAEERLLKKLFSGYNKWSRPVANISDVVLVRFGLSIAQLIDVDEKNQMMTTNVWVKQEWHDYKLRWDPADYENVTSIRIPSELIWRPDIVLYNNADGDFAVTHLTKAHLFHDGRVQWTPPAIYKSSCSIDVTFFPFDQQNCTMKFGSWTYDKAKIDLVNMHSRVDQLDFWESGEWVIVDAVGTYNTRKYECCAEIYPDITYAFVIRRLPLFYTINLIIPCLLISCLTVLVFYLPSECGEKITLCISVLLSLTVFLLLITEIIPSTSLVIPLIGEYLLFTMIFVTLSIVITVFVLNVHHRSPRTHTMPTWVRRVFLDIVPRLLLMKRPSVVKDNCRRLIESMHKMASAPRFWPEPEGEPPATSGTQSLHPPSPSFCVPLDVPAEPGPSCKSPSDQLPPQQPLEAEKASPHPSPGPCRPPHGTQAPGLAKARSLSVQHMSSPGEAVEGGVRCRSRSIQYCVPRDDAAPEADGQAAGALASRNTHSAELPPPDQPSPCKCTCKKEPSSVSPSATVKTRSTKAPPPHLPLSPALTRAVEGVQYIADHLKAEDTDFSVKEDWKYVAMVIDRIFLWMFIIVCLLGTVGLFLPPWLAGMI
T1 sequence (P30926 whole entry): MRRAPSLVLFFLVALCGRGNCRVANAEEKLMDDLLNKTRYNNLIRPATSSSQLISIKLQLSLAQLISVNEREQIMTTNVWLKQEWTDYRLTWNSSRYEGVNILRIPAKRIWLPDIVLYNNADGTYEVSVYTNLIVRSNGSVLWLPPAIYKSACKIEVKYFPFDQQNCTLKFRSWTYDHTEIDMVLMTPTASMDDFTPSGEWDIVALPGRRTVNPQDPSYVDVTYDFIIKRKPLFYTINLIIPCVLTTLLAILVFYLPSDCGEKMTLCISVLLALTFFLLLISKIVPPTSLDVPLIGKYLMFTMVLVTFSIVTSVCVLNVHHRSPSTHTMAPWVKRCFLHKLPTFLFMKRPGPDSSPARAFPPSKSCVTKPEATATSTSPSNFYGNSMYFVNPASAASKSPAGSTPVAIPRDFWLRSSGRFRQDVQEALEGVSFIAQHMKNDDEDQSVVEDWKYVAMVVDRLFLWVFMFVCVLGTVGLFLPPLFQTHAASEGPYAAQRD
T1 sequence (P32297 whole entry): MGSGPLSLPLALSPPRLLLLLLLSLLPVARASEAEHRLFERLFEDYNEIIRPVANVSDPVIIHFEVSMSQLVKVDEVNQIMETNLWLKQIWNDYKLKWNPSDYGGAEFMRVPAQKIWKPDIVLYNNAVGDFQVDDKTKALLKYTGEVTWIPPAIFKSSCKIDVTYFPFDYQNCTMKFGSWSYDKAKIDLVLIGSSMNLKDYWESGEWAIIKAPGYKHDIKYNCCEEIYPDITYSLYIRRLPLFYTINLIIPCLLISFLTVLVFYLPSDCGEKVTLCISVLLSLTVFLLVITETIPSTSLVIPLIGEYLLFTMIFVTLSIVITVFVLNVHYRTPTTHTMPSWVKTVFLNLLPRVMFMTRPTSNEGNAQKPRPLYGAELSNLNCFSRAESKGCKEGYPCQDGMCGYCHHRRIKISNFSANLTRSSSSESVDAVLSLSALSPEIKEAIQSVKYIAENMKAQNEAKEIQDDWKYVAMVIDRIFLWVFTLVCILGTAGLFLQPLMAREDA
Neuronal acetylcholine receptor; alpha4/beta2 (Rattus norvegicus, UniProt P09483+P12390), sequence (P09483 whole entry): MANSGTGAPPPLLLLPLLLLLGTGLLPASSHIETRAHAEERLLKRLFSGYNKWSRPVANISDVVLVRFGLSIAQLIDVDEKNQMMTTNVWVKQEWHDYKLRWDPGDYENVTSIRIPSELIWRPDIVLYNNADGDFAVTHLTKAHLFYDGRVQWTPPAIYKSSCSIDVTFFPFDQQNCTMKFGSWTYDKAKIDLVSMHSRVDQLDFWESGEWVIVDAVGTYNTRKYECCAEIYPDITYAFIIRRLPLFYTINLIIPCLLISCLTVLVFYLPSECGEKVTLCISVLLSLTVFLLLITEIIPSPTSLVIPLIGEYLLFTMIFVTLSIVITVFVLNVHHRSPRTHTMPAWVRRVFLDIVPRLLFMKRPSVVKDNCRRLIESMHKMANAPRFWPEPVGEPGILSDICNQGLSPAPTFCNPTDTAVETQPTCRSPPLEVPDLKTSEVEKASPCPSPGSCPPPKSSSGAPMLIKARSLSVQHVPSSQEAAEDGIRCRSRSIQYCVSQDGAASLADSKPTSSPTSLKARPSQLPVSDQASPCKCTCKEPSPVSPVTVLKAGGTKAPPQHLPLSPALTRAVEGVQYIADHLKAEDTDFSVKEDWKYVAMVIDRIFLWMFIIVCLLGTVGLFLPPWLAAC
Neuronal acetylcholine receptor; alpha4/beta2 (Rattus norvegicus, UniProt P09483+P12390), sequence (P12390 whole entry): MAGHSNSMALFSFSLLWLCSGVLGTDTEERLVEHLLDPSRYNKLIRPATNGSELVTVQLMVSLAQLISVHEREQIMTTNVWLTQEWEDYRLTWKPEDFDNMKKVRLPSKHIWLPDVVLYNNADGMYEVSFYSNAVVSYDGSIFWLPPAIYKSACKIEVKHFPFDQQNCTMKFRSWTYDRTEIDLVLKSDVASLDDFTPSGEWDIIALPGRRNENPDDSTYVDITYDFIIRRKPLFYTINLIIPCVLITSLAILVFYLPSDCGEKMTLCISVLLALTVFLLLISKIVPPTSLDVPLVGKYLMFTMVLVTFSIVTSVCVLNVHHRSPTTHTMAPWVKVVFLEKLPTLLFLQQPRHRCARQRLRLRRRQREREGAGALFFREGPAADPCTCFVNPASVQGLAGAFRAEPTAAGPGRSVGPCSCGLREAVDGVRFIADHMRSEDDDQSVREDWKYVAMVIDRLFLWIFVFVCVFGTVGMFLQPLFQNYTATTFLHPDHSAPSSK

Row | SMILES | Ki [1] [nM] | EC50 [2] [nM] | EC50 [3] [nM] | Activity [4] [%] | Activity [5] [%] | Activity (Rattus norvegicus [6]) | Activity (Rattus norvegicus [7]) | Activity (Rattus norvegicus [8]) [%] | Activity (Rattus norvegicus [9]) | Ratio EC50 (Homo sapiens)
1 | COc1cc(N2CC[C@H]3CN[C@H]3C2)cnc1Br | 0.027 | 8 | 21 | 120 | 217 | – | – | – | – | –
2 | O=[N+]([O-])c1ccc(N2CC[C@@H]3CN[C@@H]3C2)cn1 | 2.4 | 830 | 110 | 98 | 114 | Active | – | – | – | –
3 | c1ncc(N2C[C@@H]3CCNC[C@@H]32)cn1 (single isomer, unassigned) | 1.6 | 9940 | 8420 | 93 | 104 | – | – | – | – | –
4 | Cc1cc(N2C[C@@H]3CCNC[C@@H]32)cnc1Cl | 0.043 | 1910 | 76.1 | 91 | 103 | Active | inactive | – | – | –
5 | N#Cc1cc(N2C[C@H]3CCNC[C@H]32)cnc1Br | 0.3 | 238 | 172 | 100 | 157 | – | – | – | – | –
6 | N#Cc1cncc(N2C[C@H]3CCNC[C@H]32)c1 | 2.6 | 5560 | 1930 | 71 | 83 | – | – | – | – | –
7 | CCOc1cncc(N2CC[C@H]3CN[C@H]3C2)c1 | 0.052 | 124 | 620 | 103 | 116 | – | – | – | – | –
8 | Cc1cc(N2C[C@H]3CCNC[C@H]32)cnc1Cl | 0.24 | 298 | 134 | 103 | 142 | – | 75% | – | – | –
9 | c1cncc(N2C[C@@H]3CCNC[C@@H]32)c1 | – | 1700 | 410 | 98 | 105 | Active | – | – | – | –
10 | c1ncc(N2CC[C@H]3CN[C@H]3C2)cn1 | 0.04 | 108 | 350 | 121 | 181 | – | – | – | – | –
11 | Brc1cc(N2CC[C@H]3CN[C@H]3C2)cnc1Br | 0.014 | 8.2 | 7.8 | 117 | 209 | inactive | – | 99 | – | –
12 | COc1ccc(N2CC[C@@H]3CN[C@@H]3C2)cn1 | 2.7 | 2400 | 4980 | 93 | 54 | – | – | – | – | –
13 | N/C(=N/O)c1cncc(N2CC[C@@H]3CN[C@@H]3C2)c1 | – | – | – | 99 | 194 | – | – | – | – | –
14 | Brc1cncc(N2CC[C@H]3CN[C@H]3C2)c1 | 0.024 | 76 | 150 | 122 | 148 | – | – | – | – | –
15 | N#Cc1cc(N2CC[C@H]3CN[C@H]3C2)cnc1Br | 0.027 | 4.4 | 6.1 | 133 | 215 | – | – | – | – | –
16 | NC(=O)c1cc(N2C[C@@H]3CCNC[C@@H]32)cnc1Br | 2.8 | 23300 | 1490 | 73 | 75 | – | – | – | – | –
17 | Clc1cc(N2CC[C@H]3CN[C@H]3C2)cnc1Cl | 0.025 | 9.9 | 12 | 132 | 221 | – | – | – | – | –
18 | Clc1ccc(N2CC[C@H]3CN[C@H]3C2)nn1 | 0.15 | 64.8 | 78.3 | 128 | 222 | – | – | – | – | –
19 | N#Cc1cc(N2C[C@@H]3CCNC[C@@H]32)cnc1Br | 0.07 | 794 | 109 | 88 | 104 | Active | – | – | – | –
20 | c1cncc(N2CC[C@@H]3CN[C@@H]3C2)c1 | 0.059 | 260 | 330 | 118 | 112 | – | – | – | – | –
21 | COc1cc(N2C[C@@H]3CCNC[C@@H]32)cnc1Br | 1.4 | 2980 | 1690 | 84 | 65 | – | – | – | – | –
22 | COc1cncc(N2CC[C@@H]3CN[C@@H]3C2)c1 | 0.18 | 4500 | 2700 | 86 | 35 | – | – | – | inactive | –
23 | N#Cc1cncc(N2CC[C@@H]3CN[C@@H]3C2)c1 | 0.065 | 490 | 1900 | 116 | 76 | – | inactive | – | – | –
24 | COc1cncc(N2C[C@@H]3CCNC[C@@H]32)c1 | 4.4 | 63500 | 7690 | 47 | 44 | – | – | – | – | –
25 | Clc1cc(N2C[C@@H]3CCNC[C@@H]32)cnc1Cl | – | 4110 | 271 | 69 | 60 | Active | – | – | – | –

Row | SMILES | Ki [1] [nM] | EC50 [2] [nM] | EC50 [3] [nM] | Activity [4] [%] | Activity [5] [%] | Activity (Rattus norvegicus [6]) | Activity (Rattus norvegicus [7]) | Activity (Rattus norvegicus [8]) [%] | Activity (Rattus norvegicus [9]) | Ratio EC50 (Homo sapiens)
26 | NC(=O)c1cc(N2C[C@H]3CCNC[C@H]32)cnc1Br | – | 7460 | 340 | 90 | 133 | – | – | – | – | –
27 | Clc1cc(N2CC[C@@H]3CN[C@@H]3C2)cnc1Cl | 0.027 | 110 | 82 | 111 | 79 | – | 55% | – | – | –
28 | COc1cncc(N2CC[C@H]3CN[C@H]3C2)c1 | 0.038 | 180 | 130 | 103 | 178 | inactive | – | – | Dose-dependent effect | –
29 | c1cncc(N2CC[C@H]3CN[C@H]3C2)c1 | 0.035 | 48 | 71 | 121 | 171 | – | – | – | – | –
30 | CCOc1cncc(N2CC[C@@H]3CN[C@@H]3C2)c1 | 0.16 | 2800 | 1350 | 86 | 18 | – | – | – | – | –
31 | COc1cncc(N2C[C@H]3CCNC[C@H]32)c1 | 0.56 | 4360 | 1100 | 88 | 104 | – | – | – | – | –
32 | Clc1ccc(N2C[C@H]3CCNC[C@H]32)cn1 | 0.8 | 1520 | 216 | 93 | 102 | – | – | – | – | –
33 | Cc1cncc(N2CC[C@@H]3CN[C@@H]3C2)c1 | 0.064 | 1400 | 650 | 87 | 54 | inactive | – | – | – | –
34 | COc1cc(N2CC[C@@H]3CN[C@@H]3C2)cnc1Br | 0.069 | 160 | 360 | 108 | 40 | – | – | – | – | –
35 | Cc1cc(N2CC[C@@H]3CN[C@@H]3C2)cnc1Cl | 0.037 | 71 | 47 | 103 | 90 | inactive | – | – | – | –
36 | COc1cc(N2C[C@H]3CCNC[C@H]32)cnc1Br | 0.085 | 202 | 200 | 98 | 120 | – | – | – | – | –
37 | O=[N+]([O-])c1ccc(N2CC[C@H]3CN[C@H]3C2)cn1 | 1.5 | 390 | 100 | 119 | 196 | – | – | – | – | –
38 | c1cncc(N2C[C@H]3CCNC[C@H]32)c1 | – | 1540 | 1400 | 97 | 84 | – | – | – | – | –
39 | Brc1cncc(N2CC[C@@H]3CN[C@@H]3C2)c1 (single isomer, unassigned) | 0.053 | 950 | 1000 | 91 | 58 | – | – | – | – | –
40 | Cc1cc(N2CC[C@H]3CN[C@H]3C2)cnc1Cl | 0.031 | 7.2 | 7.2 | 123 | 207 | – | – | – | – | –
41 | Clc1ccc(N2CC[C@@H]3CN[C@@H]3C2)nn1 | 2.7 | 394 | 359 | 113 | 129 | Active | – | – | – | –
42 | c1ncc(N2CC[C@@H]3CN[C@@H]3C2)cn1 | 0.2 | 1020 | 4390 | 106 | 79 | – | – | – | – | –
43 | COc1ccc(N2CC[C@H]3CN[C@H]3C2)cn1 | 0.98 | 1100 | 2200 | 88 | 96 | – | – | – | – | –
44 | Brc1cc(N2CC[C@@H]3CN[C@@H]3C2)cnc1Br | 0.024 | 110 | 76 | 100 | 86 | – | 26% | – | – | –
45 | Clc1cc(N2C[C@H]3CCNC[C@H]32)cnc1Cl | 0.3 | 339 | 176 | 103 | 127 | – | – | – | – | –
46 | N#Cc1cncc(N2CC[C@H]3CN[C@H]3C2)c1 | 0.12 | 1000 | 1900 | 127 | 112 | – | – | 80 | – | –
47 | Clc1ccc(N2CC[C@H]3CN[C@H]3C2)cn1 | 0.019 | 29 | 13 | 151 | 114 | – | – | – | – | 2
48 | N#Cc1cncc(N2C[C@@H]3CCNC[C@@H]32)c1 | 0.5 | 2560 | 2190 | 91 | 64 | – | – | – | – | –
49 | Clc1ccc(N2CC[C@@H]3CN[C@@H]3C2)cn1 | 0.032 | 25 | 24 | 125 | 130 | – | – | – | – | –
